Experimental data published in US9884832B2 (priority 2011, dated 2018).
Read-outs that look alike come from different tables or passages of the source.

What was measured:
[1] = molecular target: AM2 V27A (valine→alanine mutation at residue 27 in the M2 protein) (Influenza A virus, UniProt P0DOF5, V27A); assay type: cell-based, influenza virus A/Udorn/72
[2] = molecular target: AM2 S31N (serine→asparagine mutation at residue 31 in the M2 protein) (Influenza A virus, UniProt P0DOF5, S31N); assay type: cell-based, influenza virus A/Udorn/72

Cc1c(CNC23CC4CC(CC(C4)C2)C3)sc2ccccc12 [Example 177a, Adamantan-1-yl-(3-methyl-benzo[b]thiophen-2-ylmethyl)-amine]
V27A OOcyte Inhibition at 100 uM (%) [1]: B (key: (A)=31-95%; (B)=0-30%)
S31N OOcyte Inhibition at 100 uM (%) [2]: B (key: (A)=31-95%; (B)=0-30%)

c1scc2[nH]c(CNC34CC5CC(CC(C5)C3)C4)nc12 [Example 171a, Adamantan-1-yl-(1H-thieno[3,4-d]imidazol-2-ylmethyl)-amine]
V27A OOcyte Inhibition at 100 uM (%) [1]: B (key: (A)=31-95%; (B)=0-30%)
S31N OOcyte Inhibition at 100 uM (%) [2]: A (key: (A)=31-95%; (B)=0-30%)

O=C(Oc1ccc(CNC23CC4CC(CC(C4)C2)C3)cc1)c1cccs1 [Example 37, Thiophene-2-carboxylic acid 4-(adamantan-1-ylaminomethyl)-phenyl ester]
V27A OOcyte Inhibition at 100 uM (%) ([1]; pH 5.5): B (key: (A)=31-95%; (B)=0-30%)
S31N OOcyte Inhibition at 100 uM (%) ([2]; pH 5.5): A (key: (A)=31-95%; (B)=0-30%)

COC(=O)C(Cc1cnc[nH]1)NCC12CC3CC(CC(C3)C1)C2 (stereo not shown) [Example 3, 2-[(Adamantan-1-ylmethyl)-amino]-3-(3H-imidazol-4-yl)-propionic acid methyl ester]
V27A OOcyte Inhibition at 100 uM (%) ([1]; pH 5.5): B (key: (A)=31-95%; (B)=0-30%)
S31N OOcyte Inhibition at 100 uM (%) ([2]; pH 5.5): B (key: (A)=31-95%; (B)=0-30%)

Oc1ccc(/C=N/C23CC4CC(CC(C4)C2)C3)c(O)c1 [Example 7]
V27A OOcyte Inhibition at 100 uM (%) ([1]; pH 5.5): A (key: (A)=31-95%; (B)=0-30%)
S31N OOcyte Inhibition at 100 uM (%) ([2]; pH 5.5): B (key: (A)=31-95%; (B)=0-30%)

N#Cc1ccc(CNC23CC4CC(CC(C4)C2)C3)cc1 [Example 14, 4-(Adamantan-1-ylaminomethyl)-benzonitrile]
V27A OOcyte Inhibition at 100 uM (%) ([1]; pH 5.5): B (key: (A)=31-95%; (B)=0-30%)
S31N OOcyte Inhibition at 100 uM (%) ([2]; pH 5.5): B (key: (A)=31-95%; (B)=0-30%)

FC(F)(F)Sc1ccc(CNC23CC4CC(CC(C4)C2)C3)cc1 [Example 26, Adamantan-1-yl-(4-trifluoromethylsulfanyl-benzyl)-amine]
V27A OOcyte Inhibition at 100 uM (%) ([1]; pH 5.5): B (key: (A)=31-95%; (B)=0-30%)
S31N OOcyte Inhibition at 100 uM (%) ([2]; pH 5.5): A (key: (A)=31-95%; (B)=0-30%)

c1coc(COc2ccc(CNC34CC5CC(CC(C5)C3)C4)cc2)c1 [Example 21, Adamantan-1-yl-[4-(furan-2-ylmethoxy)-benzyl]-amine]
V27A OOcyte Inhibition at 100 uM (%) ([1]; pH 5.5): A (key: (A)=31-95%; (B)=0-30%)
S31N OOcyte Inhibition at 100 uM (%) ([2]; pH 5.5): A (key: (A)=31-95%; (B)=0-30%)

c1cc(CNC23CC4CC(CC(C4)C2)C3)ccn1 [Example 73, Adamantan-1-yl-pyridin-4-ylmethyl-amine]
V27A OOcyte Inhibition at 100 uM (%) ([1]; pH 5.5): B (key: (A)=31-95%; (B)=0-30%)
S31N OOcyte Inhibition at 100 uM (%) ([2]; pH 5.5): B (key: (A)=31-95%; (B)=0-30%)

c1cc(-c2ccc(CNC34CC5CC(CC(C5)C3)C4)cc2)co1 [Example 42, N-(4-(Furan-3-yl)benzyl)adamantan-1-amine]
V27A OOcyte Inhibition at 100 uM (%) ([1]; pH 5.5): B (key: (A)=31-95%; (B)=0-30%)
S31N OOcyte Inhibition at 100 uM (%) ([2]; pH 5.5): A (key: (A)=31-95%; (B)=0-30%)

COc1cc(O)ccc1CNC12CC3CC(CC(C3)C1)C2 [Example 56, 4-(Adamantan-1-ylaminomethyl)-3-methoxy-phenol]
V27A OOcyte Inhibition at 100 uM (%) ([1]; pH 5.5): B (key: (A)=31-95%; (B)=0-30%)
S31N OOcyte Inhibition at 100 uM (%) ([2]; pH 5.5): B (key: (A)=31-95%; (B)=0-30%)

Cc1ncc(-c2ccc(CNC34CC5CC(CC(C5)C3)C4)s2)s1 [Example 154a, N-((5-(2-methylthiazol-5-yl)thiophen-2-yl)methyl)adamantan-1-amine]
V27A OOcyte Inhibition at 100 uM (%) [1]: A (key: (A)=31-95%; (B)=0-30%)
S31N OOcyte Inhibition at 100 uM (%) [2]: A (key: (A)=31-95%; (B)=0-30%)

F[B-](F)(F)C[NH2+]C12CC3CC(CC(C3)C1)C2 [Example 204a, N-[(Trifluoro-4-boranyl)methyl]adamantan-1-aminium]
V27A OOcyte Inhibition at 100 uM (%) [1]: B (key: (A)=31-95%; (B)=0-30%)
S31N OOcyte Inhibition at 100 uM (%) [2]: B (key: (A)=31-95%; (B)=0-30%)

COc1ccc(-c2cc(CNC34CC5CC(CC(C5)C3)C4)no2)cc1 [Example 110a, N-((5-(4-methoxyphenyl)isoxazol-3-yl)methyl)adamantan-1-amine]
V27A OOcyte Inhibition at 100 uM (%) [1]: B (key: (A)=31-95%; (B)=0-30%)
S31N OOcyte Inhibition at 100 uM (%) [2]: A (key: (A)=31-95%; (B)=0-30%)

CC(C)(C)CC(C)(C)NCc1ccc(O)cc1O [Example 112, 4-[(1,1,3,3-Tetramethyl-butylamino)-methyl]-benzene-1,3-diol]
V27A OOcyte Inhibition at 100 uM (%) ([1]; pH 5.5): A (key: (A)=31-95%; (B)=0-30%)
S31N OOcyte Inhibition at 100 uM (%) ([2]; pH 5.5): B (key: (A)=31-95%; (B)=0-30%)

c1csc(-c2ccc(CNC3C4CC5CC(C4)CC3C5)s2)c1 (stereo not shown) [Example 205a, N-([2,2′-bithiophen]-5-ylmethyl)adamantan-2-amine]
V27A OOcyte Inhibition at 100 uM (%) [1]: B (key: (A)=31-95%; (B)=0-30%)
S31N OOcyte Inhibition at 100 uM (%) [2]: A (key: (A)=31-95%; (B)=0-30%)

CCSc1ccc(CNC23CC4CC(CC(C4)C2)C3)cc1 [Example 12a, N-(4-(ethylthio)benzyl)adamantan-1-amine]
V27A OOcyte Inhibition at 100 uM (%) [1]: B (key: (A)=31-95%; (B)=0-30%)
S31N OOcyte Inhibition at 100 uM (%) [2]: A (key: (A)=31-95%; (B)=0-30%)

c1c(CNC23CC4CC(CC(C4)C2)C3)sc2c1CSC2 [Example 84, Adamantan-1-yl-(4,6-dihydro-thieno[3,4-b]thiophen-2-ylmethyl)-amine]
V27A OOcyte Inhibition at 100 uM (%) ([1]; pH 5.5): B (key: (A)=31-95%; (B)=0-30%)
S31N OOcyte Inhibition at 100 uM (%) ([2]; pH 5.5): A (key: (A)=31-95%; (B)=0-30%)

CC(=O)c1ccc(CNC23CC4CC(CC(C4)C2)C3)cc1 [Example 44a]
V27A OOcyte Inhibition at 100 uM (%) [1]: B (key: (A)=31-95%; (B)=0-30%)
S31N OOcyte Inhibition at 100 uM (%) [2]: B (key: (A)=31-95%; (B)=0-30%)

CC(NC1C2CC3CC(C2)CC1C3)c1ccc(O)cc1O (stereo not shown) [Example 102, 4-[1-(Adamantan-2-ylamino)-ethyl]-benzene-1,3-diol]
V27A OOcyte Inhibition at 100 uM (%) ([1]; pH 5.5): A (key: (A)=31-95%; (B)=0-30%)
S31N OOcyte Inhibition at 100 uM (%) ([2]; pH 5.5): B (key: (A)=31-95%; (B)=0-30%)

c1cnn(-c2ccc(CNC34CC5CC(CC(C5)C3)C4)cc2)c1 [Example 35, Adamantan-1-yl-(4-pyrazol-1-yl-benzyl)-amine]
V27A OOcyte Inhibition at 100 uM (%) ([1]; pH 5.5): B (key: (A)=31-95%; (B)=0-30%)
S31N OOcyte Inhibition at 100 uM (%) ([2]; pH 5.5): B (key: (A)=31-95%; (B)=0-30%)

c1ccc(CNC23CC4CC(CC(C4)C2)C3)nc1 [Example 72, Adamantan-1-yl-pyridin-2-ylmethyl-amine]
V27A OOcyte Inhibition at 100 uM (%) ([1]; pH 5.5): B (key: (A)=31-95%; (B)=0-30%)
S31N OOcyte Inhibition at 100 uM (%) ([2]; pH 5.5): B (key: (A)=31-95%; (B)=0-30%)

COc1ccc(CNC23CC4CC(CC(C4)C2)C3)cc1O [Example 61, 5-(Adamantan-1-ylaminomethyl)-2-methoxy-phenol]
V27A OOcyte Inhibition at 100 uM (%) ([1]; pH 5.5): A (key: (A)=31-95%; (B)=0-30%)
S31N OOcyte Inhibition at 100 uM (%) ([2]; pH 5.5): B (key: (A)=31-95%; (B)=0-30%)

C[S+]([O-])c1ccc(CNC23CC4CC(CC(C4)C2)C3)cc1 (stereo not shown) [Example 24, Adamantan-1-yl-(4-methanesulfinyl-benzyl)-amine]
V27A OOcyte Inhibition at 100 uM (%) ([1]; pH 5.5): B (key: (A)=31-95%; (B)=0-30%)
S31N OOcyte Inhibition at 100 uM (%) ([2]; pH 5.5): B (key: (A)=31-95%; (B)=0-30%)

CC(C)(C)OC(=O)Nc1ccc(CNC23CC4CC(CC(C4)C2)C3)cc1 [Example 12, [4-(Adamantan-1-ylaminomethyl)-phenyl]carbamic acid tert-butyl ester]
V27A OOcyte Inhibition at 100 uM (%) ([1]; pH 5.5): B (key: (A)=31-95%; (B)=0-30%)
S31N OOcyte Inhibition at 100 uM (%) ([2]; pH 5.5): B (key: (A)=31-95%; (B)=0-30%)

Cc1ccc(-c2ccc(CNC34CC5CC(CC(C5)C3)C4)s2)s1 [Example 141a, N-((5′-methyl-[2,2′-bithiophen]-5-yl)methyl)adamantan-1-amine]
V27A OOcyte Inhibition at 100 uM (%) [1]: B (key: (A)=31-95%; (B)=0-30%)
S31N OOcyte Inhibition at 100 uM (%) [2]: A (key: (A)=31-95%; (B)=0-30%)

c1cc(-c2ccc(CNC34CC5CC(CC(C5)C3)C4)s2)[nH]n1 [Example 158a, N-((5-(1H-pyrazol-5-yl)thiophen-2-yl)methyl)adamantan-1-amine]
V27A OOcyte Inhibition at 100 uM (%) [1]: A (key: (A)=31-95%; (B)=0-30%)
S31N OOcyte Inhibition at 100 uM (%) [2]: A (key: (A)=31-95%; (B)=0-30%)

O=c1ccc2cc(CNC34CC5CC(CC(C5)C3)C4)ccc2o1 [Example 42a, 6-((adamantan-1-ylamino)methyl)-2H-chromen-2-one]
V27A OOcyte Inhibition at 100 uM (%) [1]: B (key: (A)=31-95%; (B)=0-30%)
S31N OOcyte Inhibition at 100 uM (%) [2]: B (key: (A)=31-95%; (B)=0-30%)

c1coc(-c2ccc(CNC34CC5CC(CC(C5)C3)C4)cc2)c1 [Example 31a, N-(4-(Furan-2-yl)benzyl)adamantan-1-amine]
V27A OOcyte Inhibition at 100 uM (%) [1]: B (key: (A)=31-95%; (B)=0-30%)
S31N OOcyte Inhibition at 100 uM (%) [2]: A (key: (A)=31-95%; (B)=0-30%)

N=C(Nc1ccc(O)cc1)C12CC3CC(CC(C3)C1)C2 [Example 5]
V27A OOcyte Inhibition at 100 uM (%) ([1]; pH 5.5): B (key: (A)=31-95%; (B)=0-30%)
S31N OOcyte Inhibition at 100 uM (%) ([2]; pH 5.5): B (key: (A)=31-95%; (B)=0-30%)

c1cc(CNC23CC4CC(CC(C4)C2)C3)cc(-c2cccs2)c1 [Example 34a, N-(3-(thiophen-2-yl)benzyl)adamantan-1-amine]
V27A OOcyte Inhibition at 100 uM (%) [1]: A (key: (A)=31-95%; (B)=0-30%)
S31N OOcyte Inhibition at 100 uM (%) [2]: B (key: (A)=31-95%; (B)=0-30%)

CC(=O)Oc1ccc(CNC23CC4CC(CC(C4)C2)C3)c(O)c1 [Example 60, Acetic acid 4-(adamantan-1-ylaminomethyl)-3-hydroxy-phenyl ester]
V27A OOcyte Inhibition at 100 uM (%) ([1]; pH 5.5): B (key: (A)=31-95%; (B)=0-30%)
S31N OOcyte Inhibition at 100 uM (%) ([2]; pH 5.5): A (key: (A)=31-95%; (B)=0-30%)
